The results in this text go back to patent publication US7977336B2, “Aminopyrimidine derivatives as PLK1 inhibitors” (Banyu Pharmaceutical Co. Ltd, priority 2006, dated 2011).

One assay addresses T1, PLK1-T210D (Homo sapiens, UniProt P53350, T210D).
T1 construct: GST (N, cleaved yes); made in house; host or cells: Spodoptera frugiperda Sf9 insect cells (baculovirus)
The experiment in a line: Inhibitory effect against PLK1 activity (Method A), PLK1-T210D, [γ-33P]ATP peptide phosphorylation. Format: biochemical. The conditions noted are these: 50 μM ATP, 50 μM substrate peptide, 25° C., 20 minutes. An excerpt:
1. Measurement of the Inhibitory Effect against PLK 1 Activity (Method A)
It has been known that 210th codon of human PLK1 which originally codes for threonine can be changed to an active type by altering the site into aspartic acid [Molecular and Cell Biology (Mol. Cell. Biol.), 17th edition, 3408 (1997)]. In order to obtain a human active type PLK1 protein, cDNA of mutated PLK1 (PLK1-T210D) of which the 210th codon codes for aspartic acid by substituting a base in the 210th codon of human PLK1 cDNA, was prepared. A baculovirus for which the N terminus of the PLK1-T210D cDNA is fused with GST (glutathione S-transferase) was prepared, and then the PLK1-T210D transfected into a Spodoptera frugiperda (Sf) 9 insect cell was highly expressed as a GST-fused protein. The cells were recovered and suspended in a lysis buffer (50 mM tris-hydrochloric acid buffer (pH 7.4)/150 mM sodium chloride/1 mM EDTA (ethylenediamine tetraacetic acid)/1 mM dithiothreitol/0.1% polyoxyethylene sorbitan monolaurate) to break cells with sonicator, and supernatant was recovered after a centrifugation. The supernatant was reacted on glutathione sepharose beads, and then the beads were washed with a lysis buffer. Thereafter, the beads were reacted in a lysis buffer containing Precision Protease (available from GE Healthcare Bioscience Company) to recover supernatant. […]
The reaction was carried out in accordance with the method of Toyoshima-Morimoto et al. [Nature, Vol. 410, 215-220, (2001)]. […] After washing the phosphocellulose filter with 75 mM phosphate buffer, the filter was dried to measure the radioactivity with a liquid scintillation counter. […]

The target of a further assay is T2, PLK1 (Wild Type) (Homo sapiens, UniProt P53350).
T2 construct: the N terminus of a full-length cDNA of a wild type PLK1 is fused with GST; purchased Carna Biosciences Inc; host or cells: insect cell (baculovirus)
T2 sequence (P53350 whole entry, the tested form may be a part): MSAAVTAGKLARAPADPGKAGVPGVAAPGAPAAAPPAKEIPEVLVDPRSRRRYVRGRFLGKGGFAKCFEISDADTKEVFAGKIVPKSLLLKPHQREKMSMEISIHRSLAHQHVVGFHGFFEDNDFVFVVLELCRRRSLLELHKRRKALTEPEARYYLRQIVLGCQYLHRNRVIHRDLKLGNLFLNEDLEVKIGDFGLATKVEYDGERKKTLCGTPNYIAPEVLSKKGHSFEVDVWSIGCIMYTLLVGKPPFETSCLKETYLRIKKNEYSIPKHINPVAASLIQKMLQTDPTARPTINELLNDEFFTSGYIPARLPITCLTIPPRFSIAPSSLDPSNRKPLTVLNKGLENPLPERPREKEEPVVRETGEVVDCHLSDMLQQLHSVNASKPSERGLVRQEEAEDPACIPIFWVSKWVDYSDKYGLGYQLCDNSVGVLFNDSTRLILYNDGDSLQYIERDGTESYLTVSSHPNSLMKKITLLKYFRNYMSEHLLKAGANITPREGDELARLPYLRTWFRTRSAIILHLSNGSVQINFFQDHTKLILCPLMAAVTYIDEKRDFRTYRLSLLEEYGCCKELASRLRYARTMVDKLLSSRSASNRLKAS
Kind of assay: Inhibitory effect against PLK1 activity (Method B), PLK1 wild type, [γ-33P]ATP peptide phosphorylation. Format: biochemical. The conditions noted are these: 10 μM ATP, 20 μM substrate peptide, 25° C., 120 minutes. An excerpt:
2. Measurement of Inhibitory Effect against PLK1 Activity (Method B)
Human PLK1 was purchased from Carna Biosciences Inc. According to the Product Information from Carna Biosciences Inc., the present enzyme is an enzyme obtained by preparing a baculovirus for which the N terminus of a full-length cDNA of a wild type PLK1 is fused with GST (glutathione S-transferase), followed by highly expressing PLK1 transfected into an insect cell as a GST-fused protein, and then carrying out a purification with the use of glutathione sepharose chromatography.
For the measurement of the PLK1 activity, a synthetic peptide (arginine-arginine-arginine-aspartic acid-glutamic acid-leucine-methionine-glutamic acid-alanine-serine-phenylalanine-alanine-aspartic acid-glutamine-glutamic acid-alanine-lysine-valine) (SEQ. ID. NO.: 1) in which the serine surrounding sequence of the amino acid sequence No. 198 of CDC25C having been reported as the site for PLK1 substrate [EMBO Report, 3rd edition, 341 (2002)] is altered, was used as a substrate for the PLK1.
The reaction was carried out in accordance with the method as described by Toyoshima-Morimoto et al. [Nature, Vol. 410, 215-220, (2001)]. The volume of the reaction solution was 10.5 μl and the composition of the reaction buffer was a 20 mM Tris-HCl buffer (pH 7.4)/10 mM magnesium chloride/0.5 mM dithiothreitol/1 mM EGTA (ethylene glycol-bis (beta-aminoethylether-N,N,N′,N′-tetraacetic acid). Thereto, purified PLK1, 20 μM of the substrate peptide, 10 μM of non-labeled adenosine triphosphate (ATP), and 0.3 μCi [γ-^33P]-labeled ATP (>2500 Ci/mmole) were added to perform the reaction at a reaction temperature of 25° C. for 120 minutes. Thereafter, 20 μI of a 350 mM phosphate buffer was added to the reaction system to terminate the reaction, and the resultant solution was spotted onto a multi-screen phosphocellulose filter on a 384-well plate. After the phosphocellulose filter is washed with a 75 mM phosphate buffer and then dried, the radioactivity was measured with a liquid cintillation counter. The non-labeled and [γ-^33P]-labeled ATPs, and the multi-screen phosphocellulose filter were purchased from GE Healthcare Bio-Sciences, and Millipore Corporation, respectively.
Addition of the compound of the present invention to the reaction system was carried out by adding 0.5 μl of the solution prepared by preliminarily dissolving the compound in dimethylsulfoxide at a 20-fold concentration of the final concentration. A control was provided by adding 0.5 μl of dimethylsulfoxide to the reaction system.

The test system of a further assay is HeLaS3 cells. The experiment in a line: Inhibitory effect against cell proliferation: PLK1 inhibition at cellular level (M phase arrest, phospho-histone H3). Format: cell-based. The conditions noted are these: Homo sapiens, HeLa S3, 18 hours after addition, concentration inducing 50% of maximum ratio of cells arrested at M phase (histone H3 Ser10 phosphorylation). The method, then:
3. Measurement of the Inhibitory Effect against Cell Proliferation: Measurement of the Inhibitory Activity Against PLK1 at Cellular Level
For the measurement of the PLK 1 inhibitory activity of the compound at a cellular level, human uterine cervix cancer cell lines HeLaS3 cells were used. The HeLaS3 cell was obtained from American Type Culture Collection (ATTC), and cultured in a CO2-incubator of saturated steam by using Dulbecco's Modified Eagle's Medium containing 10% fetal calf serum at 37° C. in the presence of 5% CO2.
It has been reported that PLK 1 plays an important role in various stages of mitotic phase (M-phase) in mammalian cells (Nature Review Molecular Cell Biology (Nat. Rev. Mol. Cell. Biol.), Vol. 5, 429, (2004)). In fact, when mammalian cells are treated with PLK 1 siRNA to control the expression level, the cell cycle progression is inhibited and thus the cells are arrested at M phase. At the time, when the phosphorylation level of 10th serine residue on histone H3, which is thought to be required for a chromosome condensation in M phase, is examined, then it is observed that the level is enhanced to a high level. Thus, after treating the cells with the compound according to the invention, the phosphorylation level of histone H3 was examined by the indirect fluorescent antibody technique; the M phase cells were identified by using the level thereof as an indicator to analyze the ratio of cells arrested at M phase; and further EC50 value of each compound was calculated to evaluate the PLK1 inhibitory activity at a cellular level.
First, HeLaS3 cells were seeded into a lysine-treated 96-well plate (Falcon Corp.) in the proportion of 3,000 per one well, and allowed to stand still in the above-mentioned CO2 incubator. 24 hours after the seeding, the compound according to the invention, which is diluted in series, was added into each well of the plate, and further allowed to stand still in the CO2 incubator. 18 hours after the addition of the compound according to the invention, the culture medium containing the compound according to the invention in each well of the plate was removed, and then 100 μL of ice-cold 100% methanol (Wako Pure Chemical Industries, Ltd.) was added, to carry out cell fixation for 10 minutes and treatment of increasing the membrane permeability. Subsequently, to the wells in which the methanol was removed, 50 μL of 1% BSA/PBS was added, and then blocking was carried out for 30 minutes. Thereafter, for the primary antibody reaction, 50 μL of 1% BSA/PBS containing a […] Anti-phospho Histone H3 (Ser10) antibody (Upstate Corp.) was added to the wells, and the plate was left over at room temperature for 90 minutes. After terminating the reaction, each well was once washed with PBS; and for the second antibody reaction, 50 μL of 1% BSA/PBS containing […] Cy5-labelled antirabbit IgG (H+L) antibody (Chemicon) and 10 ug/mL DAPI (Sigma) which is a nucleus staining regent, was added, and further left over at room temperature for 90 minutes. After terminating the reaction, the reaction solution in wells was removed and replaced with 100 μL of PBS, and then fluorescence images were captured by using IN Cell Analyzer 1000 (manufactured by GE Amersham) to analyze the ratio of M phase cells (Mitotic index) in each view. When the maximum value of the ratio of cells arrested at M phase which can be induced by each drug is assumed as 100%, the drug concentration required for inducing 50% out of that 100% is defined as EC50.

T1 sequence (P53350 whole entry T210D): as the sequence (P53350 whole entry, the tested form may be a part) above, with T210D counted along it

For `CCc1cccn2c(-c3nc(N[C@@H](C)c4ccc(C(O)C5CCN(C)CC5)cc4)ncc3C#N)cnc12` (single isomer, unassigned) [Example 24], the values for the IC50 on PLK1-T210D and on PLK1 (Wild Type) were 4.1 nM and 1.4 nM, respectively. In the assay with HeLaS3 cells, the EC50 was determined as 4.6 nM.
As to `CCc1cccn2c(-c3nc(N[C@@H](C)c4ccc(C(O)[C@@H]5CCCN(C)C5)cc4)ncc3C#N)cnc12` (single isomer, unassigned) [Example 43], the values for the half-maximal inhibitory concentration (IC50) on PLK1-T210D and against PLK1 (Wild Type) were 7 nM and 1.4 nM, respectively. For the same compound, the EC50 with HeLaS3 cells is 4 nM.
Regarding `C[C@H](Nc1ncc(F)c(-c2cnc3c(Cl)cccn23)n1)c1ccc(C(O)C(C)(C)N(C)C)cc1` (single isomer, unassigned) [Example 85], on PLK1 (Wild Type), the IC50 amounted to 3.4 nM. Moreover, the EC50 with HeLaS3 cells came to 11 nM.
The compound `CC(C)N1CC(C(O)c2ccc([C@H](C)Nc3ncc(F)c(-c4cnc5c(Cl)cccn45)n3)cc2)C1` (single isomer, unassigned) [Example 89] returned an IC50 on PLK1 (Wild Type) of 2.4 nM. In the assay on HeLaS3 cells, the EC50 was 13.9 nM.
The like results for `CCc1cccn2c(-c3nc(N[C@@H](C)c4ccc([C@H](O)CNC(C)(C)C)cc4)ncc3C#N)cnc12` [Example 5, 2-[((1S)-1-{4-[(1S)-2-(tert-butylamino)-1-hydroxyethyl]phenyl}ethyl)amino]-4-(8-ethylimidazo[1,2-a]pyridin-3-yl)pyrimidine-5-carbonitrile] were, in that order, 2.3 nM and 2.6 nM.
In the case of `CCc1cccn2c(-c3nc(N[C@@H](C)c4ccc(C(O)[C@H]5CCCN5C)cc4)ncc3C#N)cnc12` (stereo partly drawn) [Example 55, 4-(8-ethylimidazo[1,2-a]pyridin-3-yl)-2-{[(1S)-1-(4-{hydroxy[(2R)-1-methylpyrrolidin-2-yl]methyl}phenyl)ethyl]amino}pyrimidine-5-carbonitrile], at PLK1-T210D, the IC50 was 11 nM. Besides, the EC50 in the assay with HeLaS3 cells was 5 nM.
As for `C[C@H](Nc1ncc(C#N)c(-c2cnc3c(C4CC4)cccn23)n1)c1ccc([C@H](O)[C@@]2(C)CCCN2C)cc1` [Example 66, 4-(8-cyclopropylimidazo[1,2-a]pyridin-3-yl)-2-[((1S)-1-{4-[(S)-[(2R)-1,2-dimethylpyrrolidin-2-yl](hydroxy)methyl]phenyl}ethyl)amino]pyrimidine-5-carbonitrile], the midpoint of inhibition on PLK1 (Wild Type), the IC50, lay at 1.8 nM. Further, the EC50 in the assay with HeLaS3 cells was 2.9 nM.
For `C[C@H](Nc1ncc(F)c(-c2cnc3c(Cl)cccn23)n1)c1ccc([C@H](O)CNC(C)(C)C)cc1` [Example 67, (1S)-2-(tert-butylamino)-1-[4-((1S)-1-{[4-(8-chloroimidazo[1,2-a]pyridin-3-yl)-5-fluoropyrimidin-2-yl]amino}ethyl)phenyl]ethanol], in that order: 2.6 nM and 4 nM.
On PLK1 (Wild Type), `C[C@H](Nc1ncc(F)c(-c2cnc3c(Cl)cccn23)n1)c1ccc([C@H](O)CNC2(C)CCCC2)cc1` [Example 71, (1S)-1-[4-((1S)-1-{[4-(8-chloroimidazo[1,2-a]pyridin-3-yl)-5-fluoropyrimidin-2-yl]amino}ethyl)phenyl]-2-[(1-methylcyclopentyl)amino]ethanol] came in with an IC50 of 2.2 nM. For the same compound, in the assay with HeLaS3 cells, the EC50 was 3.5 nM.
Compound `Cc1cnc(N[C@@H](C)c2ccc([C@H](O)CNC(C)(C)C)cc2)nc1-c1cnc2c(C3CC3)cccn12` [Example 73, (1S)-2-(tert-butylamino)-1-[4-((1S)-1-{[4-(8-cyclopropylimidazo[1,2-a]pyridin-3-yl)-5-methylpyrimidin-2-yl]amino}ethyl)phenyl]ethanol] had an IC50 against PLK1 (Wild Type) of 10 nM. The EC50 in the assay with HeLaS3 cells was 5.7 nM.

By IC50 is commonly meant the point on the concentration scale where inhibition reaches its midpoint. Read a high IC50 as lower potency. The EC50 is the concentration that produces a half-maximal response.
